Where “and” joins values, the source holds several entries; their conditions need not be identical. Equal entries are not always repeated.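 Method: 48-hour compound exposure of cells in 96-well plates, five concentrations, linear interpolation of endpoints. GI50: concentration for 50% inhibition of growth. TGI: total growth inhibition.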

The values that follow come from PubChem BioAssay (NCI).

Test systems include SR leukemia; DU-145 prostate; HL-60(TB) leukemia; CCRF-CEM leukemia; BT-549 breast; NCI-H23 lung; SK-MEL-28 melanoma; KM12 colon; A549 NSCLC; K-562 leukemia.
Assay in all cases: NCI-60 cell line screen, 48 h

On to `CC1=CCC2CC1C(C(=O)c1c[nH]c3ccccc13)=NC2(C)C` (stereo not drawn), for which the TGI in the test on SR leukemia, in the test on DU-145 prostate, in the test with HL-60(TB) leukemia, in the test on CCRF-CEM leukemia, with BT-549 breast and in the test on NCI-H23 lung was more than 100 µM throughout. The TGI in the test with SK-MEL-28 melanoma, in the test on KM12 colon, with A549 NSCLC and in the test with K-562 leukemia was more than 100 µM in each case.

As to `COc1cnc2c(c1)C(=O)c1c-2n(CCCN2CCCC2)c(=O)c2cc([N+](=O)[O-])ccc12`, the GI50 in the test with SR leukemia is less than 0.01 µM; with DU-145 prostate it was 0.0186 µM; in the test on HL-60(TB) leukemia it was 0.0299 µM; in the test with CCRF-CEM leukemia it was less than 0.01 µM; with BT-549 breast, 0.354 µM; with NCI-H23 lung it was 0.0272 µM. The GI50 is 10.6 µM in the test on SK-MEL-28 melanoma, 0.139 µM with KM12 colon, 0.0463 µM in the test on A549 NSCLC and 0.0226 µM in the test with K-562 leukemia. The TGI worked out at 1.34 µM with SR leukemia; 1.79 µM in the test with DU-145 prostate; 1.06 µM in the test with HL-60(TB) leukemia; 3.77 µM in the test on CCRF-CEM leukemia; 16 µM in the test with BT-549 breast; 1.25 µM with NCI-H23 lung. The TGI with SK-MEL-28 melanoma came to 27.9 µM; in the test on KM12 colon, 1.77 µM; in the test on A549 NSCLC, 1.15 µM; in the test with K-562 leukemia, 1.9 µM.

As for `Fc1cccc(COc2ccc(Nc3ncnc4onc(-c5ccccc5)c34)cc2)c1`, the GI50 is 0.0884 µM in the test on SR leukemia; 0.172 µM in the test with DU-145 prostate; 0.0955 µM in the test with HL-60(TB) leukemia; 0.287 µM with CCRF-CEM leukemia; 0.347 µM with BT-549 breast; 0.583 µM in the test with NCI-H23 lung. Besides, the GI50 in the test with SK-MEL-28 melanoma was 16.4 µM; with KM12 colon, 0.173 µM; with A549 NSCLC, 0.175 µM; in the test with K-562 leukemia, 0.101 µM. Further, the TGI with SR leukemia is more than 100 µM; in the test on DU-145 prostate, 0.806 µM; in the test on HL-60(TB) leukemia, more than 100 µM; in the test with CCRF-CEM leukemia, more than 50.4 µM; in the test with BT-549 breast, more than 100 µM; in the test on NCI-H23 lung, more than 100 µM. The TGI in the test with SK-MEL-28 melanoma is more than 100 µM; in the test on KM12 colon, more than 38.4 µM; in the test on A549 NSCLC it was more than 100 µM; in the test on K-562 leukemia, more than 100 µM.

Take `CC(C)(C)OC(=O)C1C(=O)NC(=O)CC1CC(OCc1ccccc1)C(OCc1ccccc1)C(COCc1ccccc1)OCc1ccccc1` (stereo not drawn): the GI50 with SR leukemia is 30.1 µM and 6.47 µM; with HL-60(TB) leukemia, 16.6 µM and 2.81 µM; in the test with CCRF-CEM leukemia it was 60.6 µM and 11.8 µM; with NCI-H23 lung, 80.1 µM and 30 µM; with SK-MEL-28 melanoma, > 100 µM and 18.7 µM; in the test with KM12 colon it was 39 µM and 5.26 µM. Further, the GI50 in the test with A549 NSCLC was 26 µM and 5.23 µM; in the test on K-562 leukemia it was 41.5 µM and 11 µM. The TGI with SR leukemia is more than 100 µM; in the test on DU-145 prostate it was more than 100 µM; with HL-60(TB) leukemia, 46.5 µM and 11.1 µM; with CCRF-CEM leukemia, more than 100 µM; in the test on BT-549 breast, 79.5 µM and > 100 µM; in the test with NCI-H23 lung, more than 100 µM. Further, the TGI with SK-MEL-28 melanoma is more than 100 µM; in the test on KM12 colon, > 100 µM and 27.2 µM; in the test on A549 NSCLC it was > 100 µM and 28.5 µM; in the test with K-562 leukemia, more than 100 µM.

On to `COc1cc(CCC[P+](c2ccccc2)(c2ccccc2)c2ccccc2)c(OC)c2c1OCO2`, for which the GI50 in the test on SR leukemia was 1.1 µM; in the test with DU-145 prostate it was 3.21 µM; in the test with HL-60(TB) leukemia it was 0.387 µM; with CCRF-CEM leukemia, 1.61 µM; in the test with BT-549 breast, 1.08 µM; with NCI-H23 lung, 1.67 µM. The GI50 with SK-MEL-28 melanoma was 0.875 µM; with KM12 colon it was 0.828 µM; in the test on A549 NSCLC, 3.95 µM; with K-562 leukemia, 0.659 µM. Moreover, the TGI with SR leukemia was 13.3 µM; in the test with DU-145 prostate, 74.5 µM; in the test on HL-60(TB) leukemia it was 2.35 µM; with CCRF-CEM leukemia, more than 100 µM; in the test on BT-549 breast, 8.5 µM; with NCI-H23 lung it was 10.3 µM. Besides, the TGI in the test with SK-MEL-28 melanoma was 14 µM; in the test with KM12 colon, 6.59 µM; with A549 NSCLC, 68.9 µM; in the test on K-562 leukemia, more than 100 µM.

Take `O=S(=O)(N=C1C(Cl)=C(Cl)C(=NS(=O)(=O)c2ccccc2)C(Cl)=C1Cl)c1ccccc1`: the GI50 in the test on SR leukemia is 12.7 µM; with DU-145 prostate, 18.5 µM; in the test on HL-60(TB) leukemia, 16.4 µM; in the test with CCRF-CEM leukemia, 14.8 µM; in the test with BT-549 breast it was 17.3 µM; with NCI-H23 lung, 25.6 µM. Further, the GI50 is 20.6 µM in the test with SK-MEL-28 melanoma, 12.2 µM in the test with KM12 colon, 32.3 µM in the test on A549 NSCLC and 21.4 µM in the test with K-562 leukemia. Besides, the TGI in the test with SR leukemia is more than 100 µM; in the test with DU-145 prostate, 60.9 µM; in the test with HL-60(TB) leukemia, more than 100 µM; in the test with CCRF-CEM leukemia it was 90.9 µM; with BT-549 breast, 37.5 µM; in the test with NCI-H23 lung, more than 100 µM. Besides, the TGI is 78.1 µM in the test on SK-MEL-28 melanoma, 25.6 µM in the test with KM12 colon, more than 100 µM in the test on A549 NSCLC and more than 100 µM in the test with K-562 leukemia.

On to `COC[C@H](NC(=O)c1cnc(C)s1)C(=O)N[C@@H](COC)C(=O)N[C@@H](Cc1ccccc1)C(=O)[C@@]1(C)CO1`, for which the GI50 was more than 61.4 µM in the test with SR leukemia; 37.1 µM with DU-145 prostate; 35 µM in the test on HL-60(TB) leukemia; 21.3 µM with CCRF-CEM leukemia; 14.3 µM with BT-549 breast; 36.6 µM in the test with NCI-H23 lung. Besides, the GI50 in the test with SK-MEL-28 melanoma is 27.5 µM; in the test with KM12 colon, 21.4 µM; in the test with A549 NSCLC, 42.9 µM; in the test with K-562 leukemia it was 37.8 µM. In addition, the TGI in the test with SR leukemia is more than 100 µM; in the test with DU-145 prostate, more than 100 µM; in the test on HL-60(TB) leukemia, more than 100 µM; with CCRF-CEM leukemia it was more than 100 µM; in the test on BT-549 breast, 42.6 µM; with NCI-H23 lung it was more than 100 µM. Moreover, the TGI in the test with SK-MEL-28 melanoma was more than 95.1 µM; in the test on KM12 colon, 56 µM; in the test on A549 NSCLC, more than 100 µM; in the test on K-562 leukemia it was more than 100 µM.
